Where two headings read alike, the source gives them in different places.
Columns and labels:
[1] = target: T1, ovine COX-1 (oCOX-1) (Ovis aries, UniProt P05979); test: LCMS-based COX-1 enzymatic inhibition assay (PGE2 quantification); assay type: biochemical
T1 construct: purchased Cayman Chemicals (Ann Arbor, Mich.)
T1 sequence (P05979 25-600): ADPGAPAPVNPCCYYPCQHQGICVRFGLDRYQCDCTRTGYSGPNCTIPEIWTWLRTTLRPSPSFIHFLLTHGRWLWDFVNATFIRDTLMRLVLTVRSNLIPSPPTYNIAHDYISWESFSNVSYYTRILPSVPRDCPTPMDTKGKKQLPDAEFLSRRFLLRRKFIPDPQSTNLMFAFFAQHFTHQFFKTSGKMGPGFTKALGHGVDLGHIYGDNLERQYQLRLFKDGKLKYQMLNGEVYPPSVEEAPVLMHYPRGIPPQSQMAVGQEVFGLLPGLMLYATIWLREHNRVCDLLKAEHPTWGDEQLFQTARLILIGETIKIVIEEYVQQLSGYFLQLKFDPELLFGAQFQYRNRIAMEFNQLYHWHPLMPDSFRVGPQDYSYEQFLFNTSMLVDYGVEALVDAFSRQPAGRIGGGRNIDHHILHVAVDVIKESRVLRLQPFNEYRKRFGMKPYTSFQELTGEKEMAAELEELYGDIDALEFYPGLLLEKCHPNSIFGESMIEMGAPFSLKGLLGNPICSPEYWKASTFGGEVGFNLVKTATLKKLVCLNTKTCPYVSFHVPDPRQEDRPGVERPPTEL
Outline: (§1)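 Ovine COX-1 (0.1 μg) or human recombinant COX2 (0.2 μg) in 100 mM Tris.HCl pH 8.0 with hematin and epinephrine, preincubated with inhibitor 10 min at 37 °C. Reaction with 5 μM arachidonic acid stopped after 2 min with HCl; PGE2 quantified by LC-MS-MS. IC50 from 12 concentrations in triplicate.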

[2] = target: T2, human recombinant COX2 (hCOX2) (UniProt P35354); test: LCMS-based COX2 enzymatic inhibition assay (PGE2 quantification); assay type: biochemical; parameters: COX2 2 minutes pge2/pge2d4 area ratio Avg; other: 2 minutes; readout pge2/pge2d4 area ratio; average; COX2 2 minutes pge2/pge2d4 area ratio Avg; LLE; average LLE; COX2 2 minutes pge2 area (counts) Avg; readout pge2 area (counts); other: 2 min; "ovine COX2 (oCOX2), human recombinant COX2 (hCOX2)"; conditions: for IC50: average
T2 sequence (P35354 1-604): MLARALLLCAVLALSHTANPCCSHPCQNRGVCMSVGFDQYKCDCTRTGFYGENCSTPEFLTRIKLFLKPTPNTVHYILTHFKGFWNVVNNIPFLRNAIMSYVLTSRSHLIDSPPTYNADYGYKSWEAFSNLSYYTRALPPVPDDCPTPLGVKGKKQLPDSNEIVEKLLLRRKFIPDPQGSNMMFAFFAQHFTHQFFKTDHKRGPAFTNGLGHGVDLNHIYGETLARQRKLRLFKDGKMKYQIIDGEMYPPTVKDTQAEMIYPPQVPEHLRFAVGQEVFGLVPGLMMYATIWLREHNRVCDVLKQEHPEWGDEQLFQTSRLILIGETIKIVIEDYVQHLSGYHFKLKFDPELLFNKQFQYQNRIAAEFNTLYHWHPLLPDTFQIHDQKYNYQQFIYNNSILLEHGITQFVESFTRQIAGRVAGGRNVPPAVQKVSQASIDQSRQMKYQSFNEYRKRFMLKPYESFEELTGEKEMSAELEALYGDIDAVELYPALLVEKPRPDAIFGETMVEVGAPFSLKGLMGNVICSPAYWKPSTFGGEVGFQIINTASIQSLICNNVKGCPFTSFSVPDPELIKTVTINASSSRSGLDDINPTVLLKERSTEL
Outline: as §1

[3] = 10 minutes, readout pge2/pge2d4 area ratio, average LLE
[4] = 10 minutes, readout pge2/pge2d4 area ratio, average, read-out: COX1 10 minutes pge2/pge2d4 area ratio Avg. IC50
[5] = 10 minutes, readout pge2 area (counts), average LLE
[6] = 2 minutes, readout pge2/pge2d4 area ratio, average LLE
[7] = 2 minutes, readout pge2/pge2d4 area ratio, read-out: COX2 2 minutes pge2/pge2d4 area ratio Avg. IC50
[8] = 2 minutes, readout pge2 area (counts), average LLE
[9] = 2 minutes, readout pge2 area (counts), read-out: COX2 2 minutes pge2 area (counts) Avg. IC50
[10] = 10 minutes, pge2/pge2d4 area ratio, head of this section not shown, inferred
[11] = 10 minutes, pge2 area (counts), head of this section not shown, inferred
[12] = 10 minutes, pge2 area (counts), head of this section not shown, inferred, read-out: COX1 10 minutes pge2 area (counts) Avg. IC50
[13] = 10 minutes, readout pge2 area (counts), average, read-out: COX1 10 minutes pge2 area (counts) Avg. IC50

SMILES	COX1 10 minutes pge2/pge2d4 area ratio Avg. LLE [1, 3]	IC50 [1, 4]	COX1 10 minutes pge2 area (counts) Avg. LLE [1, 5]	COX2 2 minutes pge2/pge2d4 area ratio Avg. LLE [2, 6]	IC50 [2, 7]	COX2 2 minutes pge2 area (counts) Avg. LLE [2, 8]	IC50 [2, 9]	IC50 [1]	COX1 10 minutes pge2/pge2d4 area ratio Avg. LLE [1, 10]	COX1 10 minutes pge2 area (counts) Avg. LLE [1, 11]	IC50 [1, 12]	IC50 [1, 13]	COX2 10 minutes pge2 area (counts) Avg. LLE [2, 5]	IC50 ([2]; 10 minutes, readout pge2 area (counts), read-out: COX2 10 minutes pge2 area (counts) Avg. IC50)
CN(Cc1ccoc1)c1cccc(-c2ccc(S(C)(=O)=O)cc2)n1 [Compound 52]	1.0149	51900 nM	1.014	4.377	23.9 nM	4.612	13.3 nM							
COc1ncc(NCc2cccs2)nc1-c1ccc(S(C)(=O)=O)nc1 [Compound 60]				5.902	32.3 nM	5.891	33.4 nM	52000 nM	2.694	2.694				
Cn1cccc1CNc1cccc(-c2ccc(S(C)(=O)=O)cc2)n1 [Compound 77]				4.259	48.6 nM	4.246	53.8 nM			1.289	40900 nM			
CS(=O)(=O)c1ccc(-c2cccc(OCc3cccs3)n2)nc1 [Compound 37]	2.056	39200 nM	2.13	5.44	18.1 nM	5.694	14.3 nM					33100 nM		
Cc1ccoc1CNc1cccc(-c2ccc(S(C)(=O)=O)cc2)n1 [Compound 91]		38300 nM		4.034	68.6 nM	4.0886	65.3 nM		1.267	1.134				
CSc1ccc(NCc2cccs2)nc1-c1ccc(S(C)(=O)=O)cc1 [Compound 20]	0.214		0.214	3.9449	10.8 nM	3.942	11.5 nM	52000 nM						
CS(=O)(=O)c1ccc(-c2cncc(OCc3ccoc3)n2)cc1 [Compound 58]		34400 nM		5.691	31 nM	5.691	30.9 nM		2.5036	2.324				
CS(=O)(=O)c1ccc(-c2ccc3ccn(Cc4ccco4)c3n2)cc1 [Compound 61]				3.446	33.3 nM	3.403	37 nM	52000 nM	0.214	0.214				
CS(=O)(=O)c1ccc(-n2ccc3ccc(NCc4cccs4)nc32)cc1 [Compound 57]				3.1281	30.6 nM	3.132	29.8 nM	52000 nM	−0.196	−0.1826	50400 nM			
CSc1ccc(-c2cncc(NCc3cccs3)n2)cc1 [Compound 84]				3.898	58 nM	4.023	52.5 nM			2.207	1790 nM			
CS(=O)(=O)c1ccc(-c2ccc3ccn(Cc4cccs4)c3n2)cc1 [Compound 31]	1.013	2220 nM	0.929	3.218	15.2 nM	3.116	18.5 nM					2710 nM		
CS(=O)(=O)c1ccc(-c2cncc(SCc3ccco3)n2)cc1 [Compound 78]		33500 nM			49.4 nM		43.6 nM							
CS(=O)(=O)c1ccc(-c2cncc(NCc3ccccc3)n2)cc1 [Compound 93]				5.017	69 nM	5.139	55.8 nM			2.104			5.9924	6.85 nM
CS(=O)(=O)c1ccc(-c2nc(NCc3cccs3)cnc2C(F)(F)F)cc1 [Compound 76]		31600 nM		4.278	48.6 nM	4.291	48.5 nM		1.461					
COc1ncc(-c2ccc(S(N)(=O)=O)cc2)nc1NCc1cccs1 [Compound 64]		5360 nM		5.595	36.1 nM	5.591	36.6 nM		3.4205	3.473	4760 nM			
CSc1ccc(-c2cncc(OCc3cccs3)n2)cc1 [Compound 253]				1.5751	3760 nM	1.45	4840 nM			0.8637	19300 nM			
